This passage reports IC50 results from BindingDB's records for doi:10.7270/Q2902274 (Burnham Center For Chemical Genomics, 2010).

In the experiment the target is Eukaryotic translation initiation factor 4H (Homo sapiens, UniProt Q15056). The experiment is described as follows: inhibitors of translation initiation factor eIF4H – SAR follow-up (AID 435011).

`COc1cc([CH+][N-]NC(=O)c2ccc(O)cc2)ccc1OCC(=O)Nc1cccc([N+](=O)[O-])c1`: the IC50 is > 100 µM.
